Reference: the supplement of paper PMC11061612

Tests used:
Assay in all cases: combination Emax (second highest fraction inhibited in the dose matrix, 72 h); higher = more inhibition; extreme values may be limits of the assay
[1] = tested on: HuO-3N1 (Osteosarcoma)
Summary of the method: (§1)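 After 24 hours at 37°C and 5% CO2 in 1536-well plates, cells in DMEM/F12 or RPMI plus 10% FBS received two-drug dose matrices for 72 hours. Viability came from CellTiter-Glo 2.0 luminescence and was scaled as inhibition, anchored at 0 by vehicle wells and at 1 by blank wells. Combination Emax is taken as the second-highest inhibition in the matrix, and Bliss excess as the observed combination effect less EA + EB − EA·EB, with EA and EB the single-agent effects.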

[2] = tested on: LAMA-84 (Chronic Myelogenous Leukemia)
Summary of the method: as §1

[3] = tested on: LOUCY (T-Lymphoblastic Leukemia)
Summary of the method: as §1

[4] = tested on: HSC-3 (Oral Cavity Carcinoma)
Summary of the method: as §1

[5] = tested on: ES-2 (Ovarian Carcinoma)
Summary of the method: as §1

[6] = tested on: PC-14 (Lung Adenocarcinoma)
Summary of the method: as §1

[7] = tested on: CML-T1 (Chronic Myelogenous Leukemia)
Summary of the method: as §1

[8] = tested on: OV-90 (Ovarian Carcinoma)
Summary of the method: as §1

[9] = tested on: NCI-H196 (Small Cell Lung Carcinoma)
Summary of the method: as §1

[10] = tested on: RL95-2 (Endometrial Carcinoma)
Summary of the method: as §1

[11] = tested on: NKM-1 (Acute Myeloid Leukemia)
Summary of the method: as §1

[12] = tested on: RERF-LC-KJ (Lung Adenocarcinoma)
Summary of the method: as §1

[13] = tested on: SW684 (Other Solid Carcinomas)
Summary of the method: as §1

[14] = tested on: PANC-02-03 (Pancreatic Carcinoma)
Summary of the method: as §1

[15] = tested on: RT4 (Bladder Carcinoma)
Summary of the method: as §1

[16] = tested on: Caov-3 (Ovarian Carcinoma)
Summary of the method: as §1

[17] = tested on: 786-0 (Kidney Carcinoma)
Summary of the method: as §1

[18] = tested on: SJRH30 (Rhabdomyosarcoma)
Summary of the method: as §1

[19] = tested on: AN3-CA (Endometrial Carcinoma)
Summary of the method: as §1

[20] = tested on: BALL-1 (B-Lymphoblastic Leukemia)
Summary of the method: as §1

| SMILES | combination Emax [1] | combination Emax [2] | combination Emax [3] | combination Emax [4] | combination Emax [5] | combination Emax [6] | combination Emax [7] | combination Emax [8] | combination Emax [9] | combination Emax [10] | combination Emax [11] | combination Emax [12] | combination Emax [13] | combination Emax [14] | combination Emax [15] | combination Emax [16] | combination Emax [17] | combination Emax [18] | combination Emax [19] | combination Emax [20] |
| --- | --- | --- | --- | --- | --- | --- | --- | --- | --- | --- | --- | --- | --- | --- | --- | --- | --- | --- | --- | --- |
| COc1cccc(OCCCN)c1-c1cc(Nc2cnc(C#N)cn2)n[nH]1 [Prexasertib] + Cc1cc2ncnn2cc1Nc1ncc2c(n1)n(C1CCOCC1)c(=O)n2C [AZD7648] (first compound max 1 µM, 7x7, partner max 10 µM) | 0.49 | 0.99 | 1 | 0.731 | 0.848 | 0.861 | 0.98 | 0.548 | 0.551 | 0.893 | 0.965 | 0.416 | 0.498 | 0.609 | 0.404 | 0.797 | 0.896 | 0.935 | 0.843 | 0.999 |
| COc1cccc(OCCCN)c1-c1cc(Nc2cnc(C#N)cn2)n[nH]1 [Prexasertib] + O=C(c1cc(Cc2n[nH]c(=O)c3ccccc23)ccc1F)N1CCN(C(=O)C2CC2)CC1 [Olaparib] (first compound max 1 µM, 7x7, partner max 10 µM) | 0.524 | 0.973 | 1 | 0.719 | 0.788 | 0.848 | 0.978 | 0.558 | 0.556 | 0.882 | 0.902 | 0.203 | 0.43 | 0.502 | 0.237 | 0.855 | 0.869 | 0.868 | 0.81 | 0.994 |
| COc1cc2c(cc1OCCCCCOc1cc3c(cc1OC)C(=O)N1C=C(C)C[C@H]1C=N3)N=C[C@@H]1CC(C)=CN1C2=O [SG3199] + O=C(c1cc(Cc2n[nH]c(=O)c3ccccc23)ccc1F)N1CCN(C(=O)C2CC2)CC1 [Olaparib] (first compound max 0.001 µM, 7x7, partner max 10 µM) | 0.219 | 0.226 | 0.12 | 0.157 | 0.165 | 0.179 | 0.738 | 0.098 | 0.106 | 0.264 | 0.663 | 0.148 | 0.0316 | 0.0277 | 0.169 | 0.202 | 0.0509 | 0.122 | 0.138 | 0.845 |
| CCc1c2c(nc3ccc(O)cc13)-c1cc3c(c(=O)n1C2)COC(=O)[C@]3(O)CC [SN-38] + CN(C)CCCOc1ccc(-c2ccc3ncc4c(c3c2)n(C2CCOCC2)c(=O)n4C)cn1 [AZD0156] (first compound max 0.3 µM, 7x7, partner max 1 µM) | 0.567 | 0.94 | 0.759 | 0.855 | 0.912 | 0.592 | 1 | 0.457 | 0.0732 | 0.424 | 0.973 | 0.673 | 0.462 | 0.693 | 0.819 | 0.977 | 0.884 | 0.359 | 0.325 | 1 |
| CC(=O)Nc1cccc(-n2c(=O)n(C3CC3)c(=O)c3c(Nc4ccc(I)cc4F)n(C)c(=O)c(C)c32)c1 [Trametinib] + Cc1nc(-c2cn3c(n2)-c2ccc(-c4cnn(C(C)(C)C(N)=O)c4)cc2OCC3)n(C(C)C)n1 [Taselisib] (first compound max 1 µM, 7x7, partner max 10 µM) | 0.461 | 1 | 0.527 | 0.986 | 0.725 | 1 | 0.465 | 0.834 | 0.376 | 0.588 | 1 | 0.727 | 0.929 | 0.939 | 0.734 | 0.836 | 0.613 | 0.947 | 0.997 | 0.532 |
| CC1(C)CCC(CN2CCN(c3ccc(C(=O)NS(=O)(=O)c4ccc(NCC5CCOCC5)c([N+](=O)[O-])c4)c(Oc4cnc5[nH]ccc5c4)c3)CC2)=C(c2ccc(Cl)cc2)C1 [Venetoclax] + C1CN(CCC1(C(=O)N[C@@H](CCO)C2=CC=C(C=C2)Cl)N)C3=NC=NC4=C3C=CN4 [Capivasertib] (first compound max 1 µM, 7x7, partner max 3 µM) | 0.242 | 0.371 | 1 | 0.391 | 0.14 | 0.328 | 0.935 | 0.366 | 0.198 | 0.494 | 1 | 0.377 | 0.392 | 0.189 | 0.0704 | 0.553 | 0.37 | 0.387 | 0.653 | 1 |
